The term IC50 denotes the midpoint of a concentration-inhibition curve.

Like-named read-outs stand apart in the source and are kept apart here.

Consider eleven compounds from US12187721B2, “Protein tyrosine phosphatase inhibitors” (Array BioPharma Inc., priority 2018, dated 2025).

The target of the test is T1, full-length SHP2 (His6-tagged SHP2(2-527)) (Homo sapiens, UniProt Q06124).
T1 construct: His6-tagged SHP2(2-527); His6; made in house; host or cells: E. coli
Description: SHP2 Enzymatic Assay (fluorescence intensity kinetic assay, DiFMUP hydrolysis). In kind it is biochemical. The procedure, abridged:
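1 nM His6-SHP2(2-527), activated by 1 μM bis-phosphopeptide, hydrolysed 50 μM DiFMUP in 25 mM HEPES pH 7.4 with 1 mM DTT, 50 mM KCl and 2% DMSO. DiFMU fluorescence (Ex 355/Em 460 nm) was read kinetically for 15 min at ambient temperature.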

Where [1] appears, read: full-length SHP2 with 1 μM activating peptide, 50 μM DiFMUP, single assay or mean of multiple assays, read-out: Biological Example 1 IC50.

T1 sequence (Q06124 2-527): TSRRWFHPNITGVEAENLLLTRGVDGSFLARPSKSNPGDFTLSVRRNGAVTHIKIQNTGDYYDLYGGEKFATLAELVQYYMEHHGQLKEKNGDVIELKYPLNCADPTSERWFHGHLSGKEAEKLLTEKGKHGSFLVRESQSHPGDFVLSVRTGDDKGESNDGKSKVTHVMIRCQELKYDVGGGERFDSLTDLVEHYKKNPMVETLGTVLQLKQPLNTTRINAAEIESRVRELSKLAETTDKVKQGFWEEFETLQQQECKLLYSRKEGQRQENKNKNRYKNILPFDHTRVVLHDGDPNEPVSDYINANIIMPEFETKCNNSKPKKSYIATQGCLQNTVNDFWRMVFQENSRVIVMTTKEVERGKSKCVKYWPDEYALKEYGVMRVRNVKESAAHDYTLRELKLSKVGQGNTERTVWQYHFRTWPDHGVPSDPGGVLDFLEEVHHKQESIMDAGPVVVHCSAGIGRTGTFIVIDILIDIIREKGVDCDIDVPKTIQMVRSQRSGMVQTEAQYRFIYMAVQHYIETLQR

The compound `Nc1nccc(Sc2ccc3nc(N4CCC5NCC5C4)cnc3n2)c1Cl` (centres unmarked) [Example 103, 4-((2-(3,7-diazabicyclo[4.2.0]octan-3-yl)pyrido[2,3-b]pyrazin-6-yl)thio)-3-chloropyridin-2-amine] displayed an IC50 of 79 nM.

`Nc1nccc(Sc2ccc3nc(N4CCC(N)(C(F)(F)F)CC4)cnc3n2)c1Cl` [Example 104, 4-((2-(4-amino-4-(trifluoromethyl)piperidin-1-yl)pyrido[2,3-b]pyrazin-6-yl)thio)-3-chloropyridin-2-amine] registered an IC50 of 3350 nM.

Turning to `C[C@@H]1OCC2(CCN(c3cnc4nc(Sc5ccc(N)nc5Cl)ccc4n3)CC2)[C@@H]1N` [Example 105, (3S,4S)-8-(6-((6-amino-2-chloropyridin-3-yl)thio)pyrido[2,3-b]pyrazin-2-yl)-3-methyl-2-oxa-8-azaspiro[4.5]decan-4-amine], the midpoint of inhibition, the IC50, lay at 82 nM.

In the case of `C[C@@H]1OCC2(CCN(c3cnc4nc(Sc5ccnc(N6CC[C@@H](CO)C6)c5Cl)ccc4n3)CC2)[C@@H]1N` [Example 106, ((R)-1-(4-((2-((3S,4S)-4-amino-3-methyl-2-oxa-8-azaspiro[4.5]decan-8-yl)pyrido[2,3-b]pyrazin-6-yl)thio)-3-chloropyridin-2-yl)pyrrolidin-3-yl)methanol], the IC50 amounted to 101 nM.

On to `C[C@@H]1OCC2(CCN(c3cnc4nc(Sc5ccnc(N6CC[C@@H](O)C6)c5Cl)ccc4n3)CC2)[C@@H]1N` [Example 107, (R)-1-(4-((2-((3S,4S)-4-amino-3-methyl-2-oxa-8-azaspiro[4.5]decan-8-yl)pyrido[2,3-b]pyrazin-6-yl)thio)-3-chloropyridin-2-yl)pyrrolidin-3-ol], for which it took 120 nM to reach half-maximal inhibition (IC50).

For the compound `C[Si]1(CN)CCN(c2cnc3nc(Sc4ccnc(N)c4Cl)ccc3n2)CC1` [Example 109, 4-((2-(4-(Aminomethyl)-4-methyl-1,4-azasilinan-1-yl)pyrido[2,3-b]pyrazin-6-yl)thio)-3-chloropyridin-2-amine], half-maximal inhibition (IC50) was put at 27 nM.

In turn, `N[C@@H]1c2ccccc2CC12CCN(c1cnc3nc(Sc4ccnc(NCCO)c4Cl)ccc3n1)CC2` [Example 110, (S)-2-((4-((2-(1-amino-1,3-dihydrospiro[indene-2,4′-piperidin]-1′-yl)pyrido[2,3-b]pyrazin-6-yl)thio)-3-chloropyridin-2-yl)amino)ethan-1-ol] registered an IC50 of 44 nM.

`N#Cc1ccc2c(c1)[C@H](N)C1(CCN(c3cnc4nc(Sc5ccnc(N)c5Cl)ccc4n3)CC1)C2` [Example 111, (R)-1-amino-1′-(6-((2-amino-3-chloropyridin-4-yl)thio)pyrido[2,3-b]pyrazin-2-yl)-1,3-dihydrospiro[indene-2,4′-piperidine]-6-carbonitrile] returned an IC50 of 34 nM.

`Cc1ccc2c(n1)CC1(CCN(c3cnc4nc(Sc5ccnc(N)c5Cl)ccc4n3)CC1)[C@H]2N` [Example 113, (R)-1′-(6-((2-amino-3-chloropyridin-4-yl)thio)pyrido[2,3-b]pyrazin-2-yl)-2-methyl-5,7-dihydrospiro[cyclopenta[b]pyridine-6,4′-piperidin]-5-amine] came in with an IC50 of 53 nM.

For the compound `Cc1ccc2c(n1)CC1(CCN(c3cnc4nc(Sc5ccnc(N)c5Cl)ccc4n3)CC1)[C@@H]2N` [Example 114, (S)-1′-(6-((2-amino-3-chloropyridin-4-yl)thio)pyrido[2,3-b]pyrazin-2-yl)-2-methyl-5,7-dihydrospiro[cyclopenta[b]pyridine-6,4′-piperidin]-5-amine], the IC50 under setting [1] was found to be 40 nM.

As for `COc1cnc2c(c1)[C@@H](N)C1(CCN(c3cnc4nc(Sc5ccnc(N)c5Cl)ccc4n3)CC1)C2` [Example 115, (S)-1′-(6-((2-amino-3-chloropyridin-4-yl)thio)pyrido[2,3-b]pyrazin-2-yl)-3-methoxy-5,7-dihydrospiro[cyclopenta[b]pyridine-6,4′-piperidin]-5-amine], under setting [1], the IC50 came out at 60 nM.
